Test results: paper PMC4148593, “Activation of spleen cells by ArtinM may account for its immunomodulatory properties” (Cell and Tissue Research, 2014)

Target: T1, rArtinM (recombinant ArtinM) (Artocarpus heterophyllus, UniProt Q2VPW4)
T1 construct: recombinant, expressed in E. coli BL21; monomer
T1 sequence (Q2VPW4 2-150): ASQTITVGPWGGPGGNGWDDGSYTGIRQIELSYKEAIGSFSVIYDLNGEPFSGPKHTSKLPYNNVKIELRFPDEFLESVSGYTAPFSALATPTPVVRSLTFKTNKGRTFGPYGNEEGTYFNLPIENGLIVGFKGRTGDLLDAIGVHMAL
Assay: MTT assay, inhibition of lectin-induced mitochondrial activity of murine spleen cells
Type: cell-based
Settings: read-out: % inhibition at 50 mM

Compound: OC[C@H]1OC(O)[C@@H](O)[C@@H](O)[C@@H]1O (stereo partly drawn) [D-mannose]
- inhibition at 50000 µM: 80%
